{"source": "paper PMC7551886", "about": "“Antitumour Effects of Astaxanthin and Adonixanthin on Glioblastoma” (Marine Drugs, 2020)", "key": {"Fibronectin mRNA": {"tested_on": "Fibronectin mRNA", "assay": "qRT-PCR of Fibronectin mRNA in GL261", "format": "cell-based, mouse", "conditions": "GL261, 10 µM, 48 h", "protocol": "To evaluate the effect of astaxanthin and adonixanthin on the expression of Fibronectin mRNA expression, we performed quantitative real-time reverse transcription polymerase chain reaction (qRT-PCR) analysis. GL261 cell was seeded at 2.5 × 10^4 cells well in 24-well plates with culture medium supplemented with 10% FBS. After 24 h of incubation, the medium was changed to DMEM containing 10% FBS and 0.1% DMSO PBS, 300 μM temozolomide, 10 µM astaxanthin, or 10 µM adonixanthin was added for 48 h. After 48 h of treatment, RNA was isolated from GL261 cells using Nucleo Spin RNA II (Takara, Shiga, Japan). RNA concentrations were determined using NanoVue Plus (GE Healthcare Japan, Tokyo, Japan). Single-strand cDNAs were synthesized from the isolated RNAs via reverse transcription with a PrimeScript RT Reagent Kit (Perfect Real Time; Takara). Quantitative real-time RT-PCR was performed using TB Green Premix Ex Taq II (Tli RNaseH Plus; Takara) and a TP800 Thermal Cycler Dice Real Time System (Takara). All procedures were carried out in accordance with the manufacturer’s instructions. […] The results are expressed as relative gene expression levels normalized to that of β-actin."}, "p27": {"tested_on": "p27", "assay": "Immunoblotting, p27 expression in GL261", "format": "cell-based, mouse", "conditions": "GL261, 10 µM, 48 h", "protocol": "GL261 cell was seeded at 2.5 × 10^4 cells per well in 24-well plates with culture medium supplemented with 10% FBS. After 24 h of incubation, the medium was changed to DMEM containing 10% FBS and 0.1%DMSO PBS, 300 μM temozolomide, 10 μM astaxanthin, or 10 μM adonixanthin was added for 6 and 48 h. Cells were lysed in a special buffer (RIPA buffer R0278; Sigma-Aldrich, St. Louis, MO, USA) with a protease inhibitor cocktail (Sigma-Aldrich), phosphatase inhibitor cocktails 2 and 3 (Sigma-Aldrich), and sample buffer (Wako, Osaka, Japan). The protein concentration was determined by comparison with a known concentration of bovine serum albumin using the BCA Protein Assay Kit (Thermo Fisher Scientific). The amount of total protein was 2 μg. Equal amounts of protein in sample buffer containing 10% 2-mercaptoethanol were subjected to sodium dodecyl sulphate polyacrylamide gel electrophoresis (SDS-PAGE) in 5-20% gradient gels (SuperSep Ace; Wako), and the separated proteins were transferred to polyvinylidene difluoride membrane (Immobilon-P; Merck Millipore Corporation, Bedford, MA, USA). After blocking for 30 min with Blocking One-P (Nacalai Tesque), we incubated the membranes with primary antibodies overnight at 4 °C. […] The band intensity was […] an Immuno Star LD (Wako). Band intensity was measured using an LAS-4000 UV mini Luminescent Image Analyzer (Fujifilm, Tokyo Japan) and Multi Gauge Version 3.0 (Fujifilm). The phosphorylation of ERK1/2, Akt, and p38 MAPK was measured by normalizing against total ERK1/2, total Akt, and total p38 MAPK. […]"}, "[1]": {"conditions": "ICR, mouse, in vivo, po", "protocol": "In the experiment of the murine orthotopic glioblastoma model, oral administration of each astaxanthin (10 and 30 mg/kg) and adonixanthin (10 and 30 mg/kg) was initiated 3 days after intracranial injection of GL261 cells and was continued for 10 days. In the experiment of the brain tissue absorption with oral astaxanthin or adonixanthin, after one week of adaptation, ICR mice were randomly divided into the following three groups: control group, astaxanthin group (50 mg/kg), and adonixanthin group (50 mg/kg). Mice were orally administered each reagent suspended in olive oil (5 mL/kg) by the daily single dose for 10 days. The control group was treated by olive oil alone (5 mL/kg).\nIn mice, blood samples were collected under anaesthesia by using sodium pentobarbital (50 mg/kg, 10 mL/kg, i.p). To separate serum and from blood, we centrifuged at 1700 g for 10 min. […]\nCarotenoid fraction was collected from blood and some tissues by silica gel HPLC using a Cosmosil 5SL-II column with acetone:hexane (2:8, v/v) for the mobile phase at a flow rate of 1.0 mL/min as described above. […] Identification of each carotenoid was performed by authentic carotenoids obtained from Paracoccus (ENEOS Corporation, Tokyo, Japan) by our routine methods and the content of each carotenoid was calculated from peak areas by comparison with the authentic samples."}}, "data": [{"smiles": "CC1=C(/C=C/C(C)=C/C=C/C(C)=C/C=C/C=C(C)/C=C/C=C(C)/C=C/C2=C(C)C(=O)[C@@H](O)CC2(C)C)C(C)(C)C[C@H](O)C1", "note": "[Adonixanthin, adonixanthin]", "values": [{"measurement": "mRNA level of fibronectin", "setting": "Fibronectin mRNA", "value": "decreased"}, {"measurement": "expression of p27", "setting": "p27", "value": "increased"}, {"measurement": "concentration detected in the brain", "setting": "[1]", "value": "~10", "unit": "nM"}]}, {"smiles": "CC1=C(/C=C/C(C)=C/C=C/C(C)=C/C=C/C=C(C)/C=C/C=C(C)/C=C/C2=C(C)C(=O)[C@@H](O)CC2(C)C)C(C)(C)C[C@H](O)C1=O", "note": "[Astaxanthin, astaxanthin]", "values": [{"measurement": "mRNA level of fibronectin", "setting": "Fibronectin mRNA", "value": "decreased"}, {"measurement": "expression of p27", "setting": "p27", "value": "increased"}, {"measurement": "concentration detected in the brain", "setting": "[1]", "value": "approximately 30 nM"}]}]}
